The values that follow come from patent US12404489B2, “Establishing topographic organization in three-dimensional tissue culture” (MEMORIAL SLOAN-KETTERING CANCER CENTER, priority 2017, dated 2025).

For one data set, the system named is SW480 cells. The conditions noted are these: cited from earlier work.
Data set [1] deals with SHH signaling activity in SHH-organoids. Kind of data set: Drug treatment of SHH-organoids, NKX2.2 induction at day 6. The class given is cell-based, human. The following applies: day 6 organoids. The protocol: (§1) Day 20 organoids were fixed in 4% PFA overnight at 4° C. and washed three times with PBS the next day. After fixation, tissue was cryoprotected in 30% sucrose/PBS and sectioned at 30 mm on a cryostat (Leica 3050 S). Sections were blocked for 30 minutes in 10% FBS, 1% BSA, 0.3% triton in PBS, and incubated as floating section in primary antibody overnight. The next day, sections were washed with PBS and incubated as floating section in secondary antibody for 3 hours at room temperature. Day 6 organoids were fixed in 4% PFA for 2 hours at 4° C. and washed three times with PBS. After fixation, tissue was cryoprotected in 30% sucrose/PBS and sectioned at […] and mounted directly onto slides prior to immunofluorescence assays.
Organoid topography was quantified by first dividing each image into a grid of […] squares (day 20 analysis) or […] squares (day 6 analysis) that form a Cartesian coordinate grid. […] The origin of the grid was calculated for each image as the “center of mass” of the iSHH-organizer cells: CMx=S mixi/M and CMy=S miyi/M, where m=grey value intensity of iSHH cells for individual ROIs, x or y=coordinate, and M=total intensity for all ROIs, and the sum includes all x or y coordinates in the image. […] The linear distance from the origin to each ROI (sqrt((ROIx-CM^x)^2+(ROIy-CMy)^2)) was calculated. […]

Data set [2] has the same test system. Kind of data set: Drug treatment of SHH-organoids, positional domains analysed at day 20. The class given is cell-based, human. The conditions noted are these: day 20 SHH-organoids. As to the method:
as §1, with “After fixation, tissue was cryoprotected in 30% sucrose/PBS and sectioned at 30 mm on a cryostat (Leica 3050 S).” left out
Organoid topography was quantified by first dividing each image into a grid of […] squares (day 20 analysis) or […] squares (day 6 analysis) that form a Cartesian coordinate grid. Each square is a discrete region of interest (ROI) that is associated with an X and Y coordinate. The origin of the grid was calculated for each image as the “center of mass” of the iSHH-organizer cells: CMx=S mixi/M and CMy=S miyi/M, where m=grey value intensity of iSHH cells for individual ROIs, x or y=coordinate, and M=total intensity for all ROIs, and the sum includes all x or y coordinates in the image. Next, ROI's that were positive for expression of a given protein (e.g. PAX6) were defined by thresholding staining intensity and determining ROIs with positive immunoreactivity. The linear distance from the origin to each ROI (sqrt((ROIx-CM^x)^2+(ROIy-CMy)^2)) was calculated. The present study analyzed every sixth section for each regional marker per organoid (typically 2-5 sections/organoid, depending on organoid size), thus sampling the organoids in 150 μm intervals using uniform random sampling.

Data set [3] deals with SHH-organoids. Kind of data set: Drug treatment of SHH-organoids, organoid and organizer size at day 20.
Data set [4] deals with SHH signaling in SHH organizer-containing organoids. Kind of data set: Example 6.2: SHH organizer-containing organoids treated with cholesterol inhibitors (FIGS. 15-16). It is filed as cell-based, human. The following applies: for SHH signaling (PAX6+ extent of organoid): FIG. 15; for long-range and short-range SHH signaling: FIG. 16. As to the method:
To evaluate the effect of statins on fetal development, in certain embodiments SHH organizer-containing organoids are treated with statins.
FIG. 16 summarizes the effects of cholesterol inhibition on SHH organizer-containing organoids.

The subject of data set [5] is SHH-organoids.
Where [6] appears, read: doxycycline 400 ng/ml, lovastatin 5 μM, AY9944 1.25 μM.
Setting [7] is: lovastatin 5 μM, AY9944 1.25 μM, cyclopamine 1 μM.

“Also recorded” adds a separate entry of the source. Read-outs that look alike come from different tables or passages of the source.

In the case of `Oc1nc(-c2ccc(C(F)(F)F)cc2)nc2c1CSCC2` [XAV939], in the data set with SW480 cells, the “degradation of β-catenin” value is “promotes the degradation of β-catenin” and the “protein levels of the axin-GSK3β complex” value is listed as “increases the protein levels of the axin-GSK3β complex”.

Turning to `CC[C@H](C)C(=O)O[C@H]1C[C@@H](C)C=C2C=C[C@H](C)[C@H](CC[C@@H]3C[C@@H](O)CC(=O)O3)[C@H]21` [Lovastatin], in data set [1] (lovastatin 2, 5, 20 μM), the “distance at which NKX2.2 is induced from the organizer” value is on record as “reduced the distance at which NKX2.2 is induced from the organizer in a dose-dependent manner; also recorded: dose-dependent reduction”. Moreover, in data set [2] (doxycycline 400 ng/ml, lovastatin 5 μM), the GSH2 expression domain result was “concomitant increase in GSH2 expression; also recorded: increase in the relative area of the GSH2 expression domain”. Besides, the NKX2.2 induction entry in data set [2] (setting [6]) is “partial block in NKX2.2 induction; also recorded: moderate reduction in NKX2.2 induction”. For the same compound, in data set [2] (setting [7]), the “NKX2.1 expression in or near the organizer” value (“NKX2.1 expression” below) was “retained diencephalic NKX2.1 expression; also recorded: retain NKX2.1 and OTX2 expression within the organizer”. In the data set on SHH-organoids [3], the “size of the organizer” value is “did not reduce the size of the organizer itself”. For the same compound, in the data set with SHH-organoids [3] (drug day 0-10), the “overall organoid size / growth” value is “impaired growth”.

For the compound `Clc1ccccc1CNCC1CCC(CNCc2ccccc2Cl)CC1` (centres unmarked) [AY9944], the NKX2.2 induction entry in data set [1] (all concentrations tested) is recorded as “strongly inhibited NKX2.2 induction at all concentrations tested; also recorded: strongly inhibits induction of NKX2.2”. Besides, in data set [4], the “SHH signaling (PAX6+ extent of organoid)” value is given as “largely blocked SHH signaling”; the “long-range and short-range SHH signaling” value is “block long-range SHH signaling, but not short range signaling”. Moreover, the “SHH signaling activity (efficacy and range)” value in data set [2] (doxycycline 400 ng/ml, drug day 0-10, lovastatin 5 μM, AY9944 1.25 μM, cyclopamine 1 μM) is “reduced the efficacy and range of SHH signaling activity; also recorded: strong reduction the range of SHH-signaling activity”. Besides, in data set [2] (setting [6]), the NKX2.2 induction result is listed as “largely blocked; also recorded: fail to induce NKX2.2”. In addition, the “NKX2.1 expression” value in data set [2] (setting [7]) was “retained diencephalic NKX2.1 expression; also recorded: only retain NKX2.1 expression in the immediate vicinity of the organizer; also recorded: retain NKX2.1 and OTX2 expression within the organizer”. Further, in the data set with SHH-organoids [5], the “overall organoid size / growth” value is “impaired growth” and the “size of the organizer” value is “did not reduce the size of the organizer itself”.

Turning to `CC1=C2C[C@H]3[C@@H](CC=C4C[C@@H](O)CC[C@@]43C)[C@@H]2CC[C@]12O[C@@H]1C[C@H](C)CN[C@H]1[C@H]2C` [cyclopamine], in data set [4], the “SHH signaling (PAX6+ extent of organoid)” value is recorded as “no SHH signaling”; the “long-range and short-range SHH signaling” value was “block all SHH signaling”. Also, the PAX6 expression result in data set [2] (doxycycline 400 ng/ml, cyclopamine 1 μM) was “nearly uniform for PAX6 expression; also recorded: largely express PAX6”. Also, the “NKX2.1 expression” value in data set [2] (setting [7]) was “not”.
